What all share (type): cell-based
Test [1] concerns the target T1, TLR7 (Homo sapiens, UniProt Q9NYK1).
T1 sequence (Q9NYK1 27-1049): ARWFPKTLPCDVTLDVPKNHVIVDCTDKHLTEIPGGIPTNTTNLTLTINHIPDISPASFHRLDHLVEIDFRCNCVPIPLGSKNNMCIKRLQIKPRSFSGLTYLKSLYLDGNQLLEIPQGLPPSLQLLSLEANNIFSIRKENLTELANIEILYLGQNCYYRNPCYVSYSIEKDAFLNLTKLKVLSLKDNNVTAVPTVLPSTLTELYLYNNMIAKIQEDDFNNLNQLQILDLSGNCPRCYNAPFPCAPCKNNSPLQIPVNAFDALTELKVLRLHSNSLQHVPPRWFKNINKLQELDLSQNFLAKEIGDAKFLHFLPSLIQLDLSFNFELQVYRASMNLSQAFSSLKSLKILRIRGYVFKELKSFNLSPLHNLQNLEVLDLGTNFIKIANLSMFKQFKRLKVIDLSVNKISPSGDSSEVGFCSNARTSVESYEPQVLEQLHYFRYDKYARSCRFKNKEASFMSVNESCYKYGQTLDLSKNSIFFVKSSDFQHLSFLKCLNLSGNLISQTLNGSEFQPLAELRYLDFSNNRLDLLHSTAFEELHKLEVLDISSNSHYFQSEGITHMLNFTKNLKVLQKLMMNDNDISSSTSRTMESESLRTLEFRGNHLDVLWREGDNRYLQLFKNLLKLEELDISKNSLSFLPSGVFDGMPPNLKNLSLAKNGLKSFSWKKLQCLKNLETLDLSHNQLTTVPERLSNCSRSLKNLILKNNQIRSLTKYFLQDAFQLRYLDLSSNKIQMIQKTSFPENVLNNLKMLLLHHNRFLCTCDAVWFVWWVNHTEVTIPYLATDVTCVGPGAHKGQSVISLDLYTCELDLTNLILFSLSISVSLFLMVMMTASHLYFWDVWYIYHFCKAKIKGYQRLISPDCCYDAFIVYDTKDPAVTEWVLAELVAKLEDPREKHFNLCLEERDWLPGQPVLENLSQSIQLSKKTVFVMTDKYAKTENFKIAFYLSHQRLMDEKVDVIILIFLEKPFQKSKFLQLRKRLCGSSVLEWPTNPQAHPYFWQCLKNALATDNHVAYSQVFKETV
Description: HEK293 TLR7/NFKb reporter cell assay with R848 agonist. The arrangement: expressed in transfected cells; host or cells: HEK293. The method, then: Into 384 CulturePlates (Corning 3707) was placed 5000 c/w of HEK293 TLR7/NFKb reporter cells in 30 µL DMEM without phenol red and 10% i.a. FCS and 2 mM L-glutamine. The cells were incubated for 24 h at 37° C., 10% carbon dioxide and 90% relative humidity. 3 µL of controls, standards, and compounds were dispensed to wells, incubated for 30 min then 3 µL of R848 agonist (Resiquimod) in 20 mM HEPES buffer was added. After incubation for 5 hours, it was allowed to stand at room temperature for 15 min. 10 µL of Steady-Glo substrate reagent was added and assay plates were shaken for 5 min at 1500 rpm. The assay plate was allowed to sit for 30 min at room temperature and then read on an EnVision plate reader.

The target of another test is T2, TLR8 (Homo sapiens, UniProt Q9NR97).
T2 construct: Human whole blood from healthy donors was drawn into EDTA Vacutainer tubes; endogenous in cells; host or cells: human whole blood (healthy donors)
T2 sequence (Q9NR97 27-1041): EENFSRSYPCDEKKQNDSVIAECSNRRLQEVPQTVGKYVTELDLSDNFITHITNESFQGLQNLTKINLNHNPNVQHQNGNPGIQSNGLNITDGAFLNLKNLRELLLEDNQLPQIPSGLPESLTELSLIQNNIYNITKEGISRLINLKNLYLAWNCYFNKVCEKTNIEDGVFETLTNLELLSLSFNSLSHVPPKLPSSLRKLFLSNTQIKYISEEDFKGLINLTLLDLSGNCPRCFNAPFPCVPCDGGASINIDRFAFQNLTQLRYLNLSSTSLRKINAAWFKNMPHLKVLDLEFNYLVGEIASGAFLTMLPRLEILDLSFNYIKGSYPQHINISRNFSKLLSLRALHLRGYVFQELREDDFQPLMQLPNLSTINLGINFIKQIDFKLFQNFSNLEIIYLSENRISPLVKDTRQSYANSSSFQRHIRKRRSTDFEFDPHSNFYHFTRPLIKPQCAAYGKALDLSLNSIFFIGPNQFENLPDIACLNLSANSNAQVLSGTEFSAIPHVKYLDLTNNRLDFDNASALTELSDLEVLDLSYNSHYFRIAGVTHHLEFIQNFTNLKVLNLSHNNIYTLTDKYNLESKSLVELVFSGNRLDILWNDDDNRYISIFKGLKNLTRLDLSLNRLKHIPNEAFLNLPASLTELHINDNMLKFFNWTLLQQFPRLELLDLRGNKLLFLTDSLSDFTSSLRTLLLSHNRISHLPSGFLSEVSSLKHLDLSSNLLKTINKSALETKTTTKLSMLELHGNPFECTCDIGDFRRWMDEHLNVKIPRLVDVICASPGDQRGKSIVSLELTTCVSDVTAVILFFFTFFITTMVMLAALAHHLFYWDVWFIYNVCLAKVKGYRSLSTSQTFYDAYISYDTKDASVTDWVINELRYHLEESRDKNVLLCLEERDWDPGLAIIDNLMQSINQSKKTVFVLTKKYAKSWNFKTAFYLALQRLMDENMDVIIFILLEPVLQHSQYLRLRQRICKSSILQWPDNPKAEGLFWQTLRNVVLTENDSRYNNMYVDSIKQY
Description: Human whole blood assay, TLR8-specific agonist stimulation, IL-6 by AlphaLISA. The note with it: TLR8-specific agonist 0.5 µM, IL-6 readout, read-out: IC50 TLR8 (IL6 READOUT) HUMAN WHOLE BLOOD (N=2). How it is done: (§1) Human whole blood from healthy donors was drawn into EDTA Vacutainer tubes and the experiment started within 2 hr of draw. Four parts blood was diluted with 1 part PBS. 10 mM compounds stock solutions were serially diluted 1:3 eleven times in DMSO. Each serial dilution was further diluted by transferring 3 µl to 100 µl RPMI. For the stimulation only and no stimulation controls, 3 µl 100% DMSO was transferred to 100 µl RPMI. Then, 5 µl of each of these dilutions were transferred to 96-well tissue culture grade U-bottom plate in triplicate for each ligand and each donor. Final inhibitor concentrations were 10, 3.3, 1.1, 0.37, 0.12, 0.04, 0.014, 0.0046, 0.0015, 0.00051, 0.00017, 0.00006 µM. No inhibitor (stimulation only) controls were included in triplicate for each donor. Diluted blood was dispensed on top of inhibitor dilutions at 150 µl/well. Plates were incubated at 37° C. 5% CO2 for 30 min. For TLR7 stimulation, 10 mM stock of a TLR7-specific small molecule agonist in DMSO was diluted to 90 µM in RPMI and 5 µl were added to each inhibitor dilution for each donor. Final concentration was 3 µM. For TLR8 stimulation, 10 mM stock of a TLR8-specific small molecule agonist in DMSO was diluted to 15 µM in RPMI and 5 µl were added to each inhibitor dilution for each donor. Final concentration was 0.5 µM. No stimulation controls were included in triplicate for each donor. Plates were incubated at 37° C. 5% CO2 overnight. Next day, plasma was collected and IL-6 was measured by AlphaLISA (PerkinElmer AL223 according to manufacturer’s protocol.
Background: In Alpha technology, singlet oxygen from a donor bead excites a nearby acceptor bead.

The target in test [2] is T1, TLR7. Description: Human whole blood assay, TLR7-specific agonist stimulation, IL-6 by AlphaLISA. The arrangement: Human whole blood from healthy donors was drawn into EDTA Vacutainer tubes; endogenous in cells; host or cells: human whole blood (healthy donors). The note with it: TLR7-specific agonist 3 µM, IL-6 readout, read-out: IC50 TLR7 (IL6 READOUT) HUMAN WHOLE BLOOD (N=2). The method, then:
as §1

Setting [3] is: HEK293 TLR7/NFKb reporter cells, R848 agonist, read-out: IC50 TLR7 (IL6 READOUT) HEK TRANSFECTED
[4] abbreviates: Example 4 results table, assay/readout not specified, read-out: Potency.

As to `CCN(CC)Cc1cc(Nc2ccnc3cc(Cl)ccc23)ccc1O` [AMODIAQUINE], the IC50 on TLR7 [1] (setting [3]) is above 10000 nM. As for `CCN(CC)CCCC(C)Nc1ccnc2cc(Cl)ccc12` (stereo not shown) [CHLOROQUINE, Chloroquine], the IC50 is 53300 nM at TLR8 and 2280 nM at TLR7 [2]. As for `CCN(CC)Cc1cc(Nc2ccnc3cc(Cl)ccc23)cc(CN(CC)CC)c1O` [Compound 2, CYCLOQUINE], the figures for the IC50 on TLR7 [1] (setting [4]) and on TLR7 [1] (setting [3]) were below 1000 nM and 1390 nM, respectively.

As to `Oc1c(CN2CCCC2)cc(Nc2ccnc3cc(Cl)ccc23)cc1CN1CCCC1` [Compound 3, BISPYROQUINE], the IC50 is below 1000 nM on TLR7 [1] (setting [4]) and 4590 nM at TLR7 [1] (setting [3]).

Source of the values: US20230301981A1, “TLR7/8 ANTAGONISTS AND USES THEREOF” (Merck Patent GmbH, priority 2020, published 2023).
